One block for each compound: values may come before it.
What was measured:
[1] = target: T1, NR2A-R (regulatory domain of NMDA receptor NR2A subunit) (Rattus norvegicus, UniProt Q00959); assay: [14C]spermine filter binding to purified NR2A-R; conditions: for Effect of aminoglycoside on spermine binding to NR2A-R: 20 µM [14C]spermine, aminoglycosides 75 to 300 µM (Fig. 10)
[2] = target: T2, NR2B-R (regulatory domain of NMDA receptor NR2B subunit) (Rattus norvegicus, UniProt Q00960); assay: [14C]spermine filter binding to purified NR2B-R; conditions: for Effect of aminoglycoside on spermine binding to NR2B-R: 20 µM [14C]spermine, aminoglycosides 75 to 300 µM (Fig. 10); for [14C]Spermine bound to NR2B-R in presence of addition, %: 40 µM [14C]spermine, % of binding with no addition
T2 sequence (Q00960 27-390): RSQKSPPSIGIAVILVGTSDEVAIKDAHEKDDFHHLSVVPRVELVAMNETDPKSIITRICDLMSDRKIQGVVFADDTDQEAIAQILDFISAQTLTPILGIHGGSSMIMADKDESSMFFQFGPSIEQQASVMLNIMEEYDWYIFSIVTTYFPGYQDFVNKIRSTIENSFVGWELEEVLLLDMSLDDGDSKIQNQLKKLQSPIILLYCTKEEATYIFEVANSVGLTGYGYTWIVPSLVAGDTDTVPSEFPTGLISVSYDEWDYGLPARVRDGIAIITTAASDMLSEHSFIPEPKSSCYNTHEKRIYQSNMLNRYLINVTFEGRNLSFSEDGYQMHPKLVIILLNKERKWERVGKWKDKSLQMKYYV

[3] = target: T3, NR1-R (regulatory domain of NMDA receptor NR1 subunit) (Rattus norvegicus, UniProt P35439); assay: [14C]spermine filter binding to purified NR1-R; conditions: for Effect of aminoglycoside on spermine binding to NR1-R: 20 µM [14C]spermine, aminoglycosides 75 to 300 µM (Fig. 10)
[4] = target: T3, NR1-R (regulatory domain of NMDA receptor NR1 subunit); assay: [3H]ifenprodil filter binding to purified NR1-R
[5] = target: T1, NR2A-R (regulatory domain of NMDA receptor NR2A subunit); assay: [3H]ifenprodil filter binding to purified NR2A-R; conditions: 0.1 to 0.8 µM [3H]ifenprodil
[6] = target: T2, NR2B-R (regulatory domain of NMDA receptor NR2B subunit); assay: [3H]ifenprodil filter binding to purified NR2B-R; conditions: for [3H]Ifenprodil bound to NR2B-R in presence of addition, %: 0.4 µM [3H]ifenprodil, % of binding with no addition
NR2A-R = NR2A-R (Rattus norvegicus, UniProt Q00959); assay: Circular dichroism; format: binding
NR2A-R, sequence (Q00959 23-389): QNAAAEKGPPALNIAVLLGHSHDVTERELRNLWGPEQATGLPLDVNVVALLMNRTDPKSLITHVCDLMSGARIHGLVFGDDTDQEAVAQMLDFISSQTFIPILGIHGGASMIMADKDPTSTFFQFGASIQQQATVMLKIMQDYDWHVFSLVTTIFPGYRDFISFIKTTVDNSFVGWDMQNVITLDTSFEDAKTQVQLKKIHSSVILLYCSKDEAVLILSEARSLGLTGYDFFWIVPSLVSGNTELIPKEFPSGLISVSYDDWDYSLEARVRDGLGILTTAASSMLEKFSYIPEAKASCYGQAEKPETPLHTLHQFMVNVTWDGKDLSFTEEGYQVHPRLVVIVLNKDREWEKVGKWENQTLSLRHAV

NR1/NR2B receptors [7] = conditions: read-out: IC50 for ifenprodil inhibition at intact, functional NR1/NR2B receptors; pH 7.6; ref Williams 1993; cited from earlier work
NR1-R = NR1-R (Rattus norvegicus, UniProt P35439); assay: Circular dichroism; format: binding
NR2B-R = NR2B-R (Rattus norvegicus, UniProt P35439+Q00960); assay: Circular dichroism; format: binding
NR2B-R, sequence (Q00960 27-390, one chain of several): as the sequence (Q00960 27-390) above

NR1-R (E181Q) [8] = target: T4, NR1-R (E181Q) (Rattus norvegicus, UniProt P35439, E181Q)
ovalbumin = ovalbumin (Gallus gallus, UniProt P01012); conditions: control, unrelated protein
ovalbumin, sequence (P01012 whole entry, species assumed): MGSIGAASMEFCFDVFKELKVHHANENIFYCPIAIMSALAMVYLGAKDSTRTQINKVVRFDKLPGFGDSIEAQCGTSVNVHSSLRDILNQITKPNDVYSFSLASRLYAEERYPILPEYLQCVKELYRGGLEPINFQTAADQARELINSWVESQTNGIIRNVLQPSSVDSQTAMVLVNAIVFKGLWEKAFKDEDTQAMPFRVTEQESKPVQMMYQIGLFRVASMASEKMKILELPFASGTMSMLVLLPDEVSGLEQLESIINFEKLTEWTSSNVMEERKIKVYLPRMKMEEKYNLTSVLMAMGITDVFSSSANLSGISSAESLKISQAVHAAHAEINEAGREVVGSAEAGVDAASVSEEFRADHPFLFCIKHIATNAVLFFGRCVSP

NR1-R (E181Q) [9] = target: T4, NR1-R (E181Q); assay: biochemical
NR1/NR2A receptors = NR1/NR2A receptors (Rattus norvegicus, UniProt P35439+Q00959); assay: Voltage clamp recording in Xenopus oocytes expressing NR1/NR2A
NR1/NR2A receptors, sequence (Q00959 23-1464, other chains not shown): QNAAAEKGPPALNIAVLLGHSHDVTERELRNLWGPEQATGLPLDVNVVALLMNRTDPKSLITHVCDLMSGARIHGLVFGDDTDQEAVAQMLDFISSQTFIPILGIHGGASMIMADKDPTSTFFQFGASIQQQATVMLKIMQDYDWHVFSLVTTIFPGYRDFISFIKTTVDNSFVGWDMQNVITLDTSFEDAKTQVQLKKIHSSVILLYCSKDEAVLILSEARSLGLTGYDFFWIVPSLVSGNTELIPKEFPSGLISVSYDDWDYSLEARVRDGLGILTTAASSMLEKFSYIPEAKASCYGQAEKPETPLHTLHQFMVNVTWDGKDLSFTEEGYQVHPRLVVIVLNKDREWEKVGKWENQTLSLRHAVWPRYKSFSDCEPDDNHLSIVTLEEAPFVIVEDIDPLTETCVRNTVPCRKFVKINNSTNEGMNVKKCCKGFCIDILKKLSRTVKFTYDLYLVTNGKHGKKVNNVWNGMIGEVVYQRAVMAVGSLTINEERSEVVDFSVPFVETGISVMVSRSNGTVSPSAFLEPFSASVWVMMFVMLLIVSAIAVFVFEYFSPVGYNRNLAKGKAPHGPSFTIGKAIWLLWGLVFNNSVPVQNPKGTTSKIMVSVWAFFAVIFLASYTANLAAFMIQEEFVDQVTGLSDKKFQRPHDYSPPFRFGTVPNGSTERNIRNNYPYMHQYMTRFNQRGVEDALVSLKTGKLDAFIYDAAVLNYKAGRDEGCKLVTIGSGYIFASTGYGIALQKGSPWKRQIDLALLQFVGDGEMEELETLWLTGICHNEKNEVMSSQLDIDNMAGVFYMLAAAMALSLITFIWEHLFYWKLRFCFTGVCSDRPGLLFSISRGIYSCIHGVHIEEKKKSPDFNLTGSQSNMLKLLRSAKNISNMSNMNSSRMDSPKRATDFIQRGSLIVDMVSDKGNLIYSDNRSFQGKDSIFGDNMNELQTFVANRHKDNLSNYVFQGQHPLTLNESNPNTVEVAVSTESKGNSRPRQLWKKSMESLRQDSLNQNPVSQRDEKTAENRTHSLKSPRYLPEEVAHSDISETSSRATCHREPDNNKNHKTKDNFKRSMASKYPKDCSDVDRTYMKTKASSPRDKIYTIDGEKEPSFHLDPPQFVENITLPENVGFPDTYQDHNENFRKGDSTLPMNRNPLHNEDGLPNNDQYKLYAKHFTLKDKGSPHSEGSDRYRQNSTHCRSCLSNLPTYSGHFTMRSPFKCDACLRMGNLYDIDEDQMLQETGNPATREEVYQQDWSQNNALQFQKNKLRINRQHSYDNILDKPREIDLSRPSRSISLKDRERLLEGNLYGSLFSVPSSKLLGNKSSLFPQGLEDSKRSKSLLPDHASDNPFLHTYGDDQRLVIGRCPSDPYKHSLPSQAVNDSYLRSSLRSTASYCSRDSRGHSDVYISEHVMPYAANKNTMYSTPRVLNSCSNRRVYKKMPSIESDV

NR1/NR2B receptors [10] = target: NR1/NR2B receptors (Rattus norvegicus, UniProt P35439+Q00960); assay: Voltage clamp recording in Xenopus oocytes expressing NR1/NR2B
NR1/NR2B receptors (Rattus norvegicus, UniProt P35439+Q00960), sequence (Q00960 27-1482, other chains not shown): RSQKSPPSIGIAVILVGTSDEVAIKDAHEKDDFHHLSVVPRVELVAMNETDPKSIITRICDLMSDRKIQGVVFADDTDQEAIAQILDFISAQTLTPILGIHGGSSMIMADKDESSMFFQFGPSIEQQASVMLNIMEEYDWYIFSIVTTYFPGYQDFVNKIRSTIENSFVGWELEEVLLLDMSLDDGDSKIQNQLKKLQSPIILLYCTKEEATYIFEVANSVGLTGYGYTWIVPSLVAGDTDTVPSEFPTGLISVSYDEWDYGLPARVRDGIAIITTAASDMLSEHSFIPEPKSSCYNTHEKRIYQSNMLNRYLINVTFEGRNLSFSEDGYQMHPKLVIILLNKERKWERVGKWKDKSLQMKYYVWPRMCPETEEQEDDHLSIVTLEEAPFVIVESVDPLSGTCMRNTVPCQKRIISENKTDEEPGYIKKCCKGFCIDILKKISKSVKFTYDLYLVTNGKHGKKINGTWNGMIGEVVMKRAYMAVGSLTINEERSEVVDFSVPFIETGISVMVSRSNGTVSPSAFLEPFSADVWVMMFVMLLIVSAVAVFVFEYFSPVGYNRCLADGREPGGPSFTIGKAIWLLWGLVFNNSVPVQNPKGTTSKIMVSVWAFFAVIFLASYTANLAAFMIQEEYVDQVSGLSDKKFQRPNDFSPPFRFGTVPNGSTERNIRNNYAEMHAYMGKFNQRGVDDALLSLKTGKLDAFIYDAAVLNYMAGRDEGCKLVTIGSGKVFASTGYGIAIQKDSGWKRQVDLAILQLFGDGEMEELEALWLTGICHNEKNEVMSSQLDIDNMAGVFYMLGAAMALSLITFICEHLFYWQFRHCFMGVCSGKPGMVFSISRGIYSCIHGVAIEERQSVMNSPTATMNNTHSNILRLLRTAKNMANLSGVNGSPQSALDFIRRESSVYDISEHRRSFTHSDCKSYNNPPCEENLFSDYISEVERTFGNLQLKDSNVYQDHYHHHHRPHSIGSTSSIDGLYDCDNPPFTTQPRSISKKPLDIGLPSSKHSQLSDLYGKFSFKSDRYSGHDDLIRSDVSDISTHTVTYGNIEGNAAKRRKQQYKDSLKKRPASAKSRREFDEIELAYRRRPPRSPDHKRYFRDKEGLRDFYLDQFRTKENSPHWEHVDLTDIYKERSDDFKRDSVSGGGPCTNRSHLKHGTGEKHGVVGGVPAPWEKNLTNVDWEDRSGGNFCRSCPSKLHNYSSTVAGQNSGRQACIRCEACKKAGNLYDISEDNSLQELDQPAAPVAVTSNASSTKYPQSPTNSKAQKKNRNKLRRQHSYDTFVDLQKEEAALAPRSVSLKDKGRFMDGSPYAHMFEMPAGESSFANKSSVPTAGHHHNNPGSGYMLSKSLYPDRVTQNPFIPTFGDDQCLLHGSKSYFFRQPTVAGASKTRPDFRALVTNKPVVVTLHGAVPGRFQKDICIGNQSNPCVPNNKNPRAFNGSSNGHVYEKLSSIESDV

T1 sequence (Q00959 23-389): as the sequence (Q00959 23-389) above

Effect of aminoglycoside on spermine binding to NR2A-R [1]: inhibited
Effect of aminoglycoside on spermine binding to NR2B-R [2]: inhibited
Effect of aminoglycoside on spermine binding to NR1-R [3]: inhibited
Compound: [H]/N=C(/N)N[C@H]1[C@H](O)[C@@H](O)[C@H](O[C@@H]2O[C@@H](C)[C@](O)(C=O)[C@H]2O[C@@H]2O[C@@H](CO)[C@H](O)[C@@H](O)[C@@H]2NC)[C@@H](N/C(N)=N\[H])[C@@H]1O [streptomycin]

Effect of aminoglycoside on spermine binding to NR2A-R [1]: inhibited
Effect of aminoglycoside on spermine binding to NR2B-R [2]: inhibited
Effect of aminoglycoside on spermine binding to NR1-R [3]: inhibited
Compound: NC[C@@H]1O[C@H](O[C@H]2[C@@H](O)[C@H](O[C@@H]3[C@@H](O)[C@H](N)C[C@H](N)[C@H]3O[C@H]3O[C@H](CN)[C@@H](O)[C@H](O)[C@H]3N)O[C@@H]2CO)[C@H](N)[C@@H](O)[C@@H]1O [neomycin B]

Compound: CC(C(O)c1ccc(O)cc1)N1CCC(Cc2ccccc2)CC1 (stereo not shown) [ifenprodil]
[14C]Spermine bound to NR2B-R in presence of addition, % [2]: 108%
Bmax of ifenprodil binding, NR1-R [4]: 5.6 nmol/mg R domain protein
Bmax of ifenprodil binding, NR1-R, equivalent [4]: 0.24 mol/mol R domain protein
Hill coefficient for binding of ifenprodil to NR1-R [4]: ~1.0
Specific binding of [3H]ifenprodil to NR2A-R [5]: no specific binding
Bmax of ifenprodil binding, NR2B-R [6]: 5.2 nmol/mg R domain protein
Bmax of ifenprodil binding, NR2B-R, equivalent [6]: 0.21 mol/mol R domain protein
Hill coefficient for binding of ifenprodil to NR2B-R [6]: ~1.0
[3H]Ifenprodil bound to NR2B-R in presence of addition, % [6]: 15%
Change in the CD spectra of NR2A-R (NR2A-R; 2 µM ifenprodil): no change
IC50 (NR1/NR2B receptors [7]): 0.34 µM

Compound: NCCCNCCCCNCCCN [spermine]
Bmax of spermine binding, NR2A-R, equivalent [1]: 0.29 mol/mol R domain
Hill coefficient for spermine binding to NR2A-R [1]: close to unity
Kd [1]: 140 µM
Bmax of spermine binding, NR2A-R ([1]; Scatchard plot): 6.9 nmol/mg R domain protein
Affinity for spermine lower at NR2A R domain compared to NR2B R domain ([1]; ratio of Kd): 4 fold
Bmax of spermine binding, NR2B-R, equivalent [2]: 0.32 mol/mol R domain
Hill coefficient for spermine binding to NR2B-R [2]: close to unity
[14C]Spermine bound to NR2B-R in presence of addition, % [2]: 7%
Kd ([2]; Kd of spermine at NR2B-R calculated from k1 and k−1, from rate constants): 25.9 µM
Bmax of spermine binding, NR2B-R ([2]; Scatchard plot): 7.3 nmol/mg R domain protein
Dissociation rate constant k−1 of [14C]spermine at NR2B-R ([2]; after addition of nonlabeled 3 mM spermine): 0.22 min⁻¹
Association rate constant k1 of [14C]spermine at NR2B-R ([2]; average at 12.5, 25 and 50 µM [14C]spermine): 8,500 M^−1·min^−1
[3H]Ifenprodil bound to NR2B-R in presence of addition, % [6]: 99%
Kd (NR1-R): 20 µM
Kd (NR2A-R): 133 µM
Kd (NR2B-R): 35 µM
Binding of spermine to E181Q mutant compared to wild-type NR1-R (NR1-R (E181Q) [8]): reduced
Binding of spermine to ovalbumin (ovalbumin): little binding
Kd (NR1-R (E181Q) [9]): 74 µM
Bmax of spermine binding, NR1-R, equivalent [3]: 0.24 mol/mol R domain
Hill coefficient for spermine binding to NR1-R [3]: close to unity
Kd [3]: 19 µM
Bmax of spermine binding, NR1-R ([3]; Scatchard plot): 6.3 nmol/mg R domain protein
EC50 (NR1/NR2A receptors): 278 µM
Hill coefficient for spermine at NR1/NR2A (NR1/NR2A receptors; oocytes, −20 mV): 1.17
EC50 (NR1/NR2B receptors [10]): 78 µM
Hill coefficient for spermine at NR1/NR2B (NR1/NR2B receptors [10]; oocytes, −20 mV): 1.05

Compound: N[C@@H](CCC(=O)O)C(=O)O [Glutamate, glutamate]
[14C]Spermine bound to NR2B-R in presence of addition, % [2]: 102%
[3H]Ifenprodil bound to NR2B-R in presence of addition, % [6]: 103%

Effect of aminoglycoside on spermine binding to NR2A-R [1]: inhibited
Effect of aminoglycoside on spermine binding to NR2B-R [2]: inhibited
Effect of aminoglycoside on spermine binding to NR1-R [3]: inhibited
Compound: NC[C@@H]1O[C@H](O[C@H]2[C@@H](O)[C@H](O[C@@H]3[C@@H](O)[C@H](N)C[C@H](N)[C@H]3O[C@H]3O[C@H](CO)[C@@H](O)[C@H](O)[C@H]3N)O[C@@H]2CO)[C@H](N)[C@@H](O)[C@@H]1O [paromomycin]

Compound: NCC(=O)O [Glycine, glycine]
[3H]Ifenprodil bound to NR2B-R in presence of addition, % [6]: 102%

Compound: kanamycin A
Effect of aminoglycoside on spermine binding to NR2A-R [1]: inhibited
Effect of aminoglycoside on spermine binding to NR2B-R [2]: inhibited
Effect of aminoglycoside on spermine binding to NR1-R [3]: inhibited

[14C]Spermine bound to NR2B-R in presence of addition, % [2]: 6%
[3H]Ifenprodil bound to NR2B-R in presence of addition, % [6]: 98%
Compound: NCCCCNCCCN [Spermidine, spermidine]
